# Laboratory results as given in US20130052162A1, “BOOSTING IMMUNE DEFENSE BY UPREGULATING CCAAT/ENHANCER BINDING PROTEIN EPSILON” (CEDARS-SINAI MEDICAL CENTER, priority 2010, published 2013).
# “Also recorded” adds a separate entry of the source.
# Experiments:
# CEBPE promoter region [1] = experiment: ChIP: histone H3 acetylation at CEBPE promoter in BMDM; assay type: cell-based, mouse; conditions: WT BMDM, 1 mM NAM, 6-12 h, vs untreated, densitometry
# Experimental: (§1) ChIP assay kit (Upstate Biotechnology, Lake Placid, N.Y.) was used, and chromatin was prepared for IP as instructed by the manufacturer. The sonicated chromatin was immunoprecipitated with either 5 μg of anti-acetylated histone H3 antibody or normal rabbit IgG antibody as negative control (Upstate Biotechnology). Immunoprecipitated DNA was subsequently analyzed by PCR using primers specific for the CEBPE promoter region; input chromatin was analyzed for β-actin mRNA as a positive control. The optimal reaction conditions for PCR were determined for each primer pair. Primers were denatured at 95° C. for 1 min and annealed at 60° C. for 1 min, followed by elongation at 72° C. for 1 min; each product was amplified 35 cycles. PCR products were analyzed by 2.5% agarose/ethidium bromide gel electrophoresis. […] The primers used for ChIP analysis were: human CEBPE 5′-GCTTTGGCCAAGCCCAGGGA-3′ (forward) (SEQ ID NO: 9), 5′-TGCTGGGCTCCACCTACCCC-3′ (reverse) (SEQ ID NO: 10); human β-actin: 5′-CTCCTCGGGAGCCACACGCA-3′ (forward) (SEQ ID NO: 1), 5′-TAGGGGAGCTGGCTGGGTGG-3′ (reverse) (SEQ ID NO: 12); murine CEBPE: 5′-TGAGGCTGCAGCTTGCCTGG-3′ (forward) (SEQ ID NO: 13), 5′-ACCAAGCTACCCCTGGCCCT-3′ (reverse) (SEQ ID NO: 14), murine β-actin: 5′-ACCTGTTACTTTGGGAGTGGCAAGC-3′ (forward) (SEQ ID NO: 15), 5′-GTCGTCCCAGTTGCTAACAATGCC-3′ (reverse) (SEQ ID NO: 16).
# CEBPE promoter region [2] = experiment: ChIP: histone H3 acetylation at CEBPE promoter in human PMNs from NAM-treated blood; assay type: cell-based; conditions: blood treated with 1 mM NAM, 12 h
# Experimental: as §1, with “16). […]” for “16).”
# LF-promoter = experiment: LF reporter gene (LAC-LUC) luciferase assay in U937 cells; assay type: cell-based, human; conditions: 1 mM NAM, 16 h, vs PBS
# Experimental: The inventors designed a −230 LF promoter reporter plasmid (LAC-LUC) including a C/EBP-binding site as previously described^15. For the reporter gene assay, 2×10^6 […] cells were transiently transfected either with 2 μg of the LAC-LUC luciferase reporter gene constructs or the empty-vector control (pGL3, Promega, Madison, Wis., USA), as well as 0.2 μg of Renilla luciferase (pRL-SV40). Transfections were performed using the nucleofection technique with the Amaxa-Kit (Invitrogen, Karlsruhe, Germany) according to the manufacturer's instructions. After 16 h of transfection, the cells were treated with NAM (1 mM) for an additional 16 h. The lysates were harvested and luciferase activity measured by the Dual-Luciferase reporter assay system (Promega, Madison, Wis., USA). For all transfection studies, luciferase activity was normalized using pRL-SV40 activity. Results represent the mean of three independent experiments performed in triplicate.
# S. aureus [3] = experiment: Human peripheral whole blood killing assay, S. aureus; assay type: cell-based
# K. pneumoniae = experiment: Human peripheral whole blood killing assay, K. pneumoniae; assay type: cell-based; conditions: NAM-pretreated human blood, 3 h of infection
# Experimental: (§2) This well described phagocytic survival assay has been previously reported^42. Bacteria was pelleted, washed twice, diluted to the specified inoculum in 25 μl PBS (without Ca^2+ and Mg^2+), and immediately mixed with 75 μl of freshly drawn human or murine peripheral whole blood in sterile heparinized 2 mL round-bottom Eppendorf tubes. When required, murine plasma was obtained by centrifugation of heparinized whole blood at 2000×g for 15 min at RT. Reactions (performed in minimum in triplicate) were incubated at 37° C. for 1-3 h on a rotary shaker, at which time ten-fold serial dilutions were plated on THA for enumeration of surviving CFU.
# (§3) When required, freshly drawn human or murine peripheral blood was pretreated with NAM (˜0.1 mM or ˜10 mM) or PBS (without Ca^2+ and Mg^2+), prior to inoculation with bacteria.
# (§4) Participants in the inventors' study included 15 healthy humans with a negative history of infection or antibiotic treatments in the prior 4 weeks. Peripheral blood was collected from individuals in a fasting condition. Polymorph-prep (Axis-Shield, Oslo, Norway) was used for the isolation of PMNs according to the manufacturer's protocol.
# P. aeruginosa = experiment: Human peripheral whole blood killing assay, P. aeruginosa; assay type: cell-based; conditions: NAM-pretreated human blood
# Experimental: as §2, §3, §4
# S. aureus [4] = experiment: Murine systemic (i.p.) S. aureus infection; assay type: in vivo, mouse; conditions: 250 mg/kg i.p. daily from 24 h before infection, 48 h p.i.
# Experimental: Following euthanization of mice on the specified day, infected skin lesion tissue was aseptically excised, and thoroughly homogenized and mixed in 1 mL of PBS as previously shown^43. Ten-fold serial dilutions of the homogenates were plated on THA for CFU determination. The spleen and both kidneys were aseptically removed from each animal and processed in the same way. When required, the appropriate homogenized suspensions (skin lesions) were centrifuged at 15,000 g for 10 min and supernatants stored at −80° C. for subsequent analysis by ELISA.
# Mice were systemically infected by intraperitoneal (i.p.) injection of 1×10^7 CFU/mL S. aureus for 48 h. Following euthanasia, the spleen and both kidneys were removed for CFU determination.
# S. aureus [5] = experiment: Effect of NAM on growth and viability of S. aureus; assay type: cell-based, Staphylococcus aureus; conditions: 6 h
# Experimental: The inventors assessed whether NAM, at the concentrations used in the study, adversely affect the growth and viability of S. aureus. PBS was chosen as an inert non-growth medium, and THB was chosen as a suitable growth medium for S. aureus. Seventy-five microliters of NAM (1 mM and 10 mM final concentrations; in either THB or PBS) or THB or PBS alone (respective controls) were placed in sterile 2 mL round-bottom Eppendorf tubes, and then inoculated with S. aureus (˜1×10^4 CFU/mL in 25 μl of PBS or THB) and immediately briefly vortexed. Triplicate reactions were incubated at 37° C. for 1 h, 3 h, and 6 h on a rotary shaker at which time ten-fold serial dilutions were plated on THIA for enumeration of CFU.
# In a different assay, S. aureus (˜1×10^8 CFU/mL in THB) was incubated with or without 50 mM NAM. This concentration represents the equivalent molarity of NAM used in the in vivo experiments. Triplicate 1 mL reactions were incubated at 37° C. on a rotary shaker and at various time points (6 h, 12 h, and 24 h) ten-fold serial dilutions were plated on THA for enumeration of CFU. This assay was performed on two independent occasions using inocula generated from three separate bacterial cultures.
smiles,measurement,setting,value
"NC(=O)c1cccnc1 [NAM, Nicotinamide]",increase in histone H3 acetylation at the CEBPE promoter,CEBPE promoter region [1],5 fold
same,increase in histone H3 acetylation at the CEBPE promoter,CEBPE promoter region [2],5 fold
same,increase in LF reporter gene activity,LF-promoter,2.5 fold
same,"CFU recovered, NAM- vs PBS-treated blood","S. aureus [3]; NAM 1 mM or 10 mM 24 h, 1 h and 3 h of infection",Significantly less CFU
same,reduction of S. aureus survival in whole blood vs PBS,"S. aureus [3]; NAM 1 mM or 10 mM 24 h pretreatment, 3 h p.i.",2-3 log10
same,"K. pneumoniae CFU recovered / outcome, NAM- vs PBS-treated blood",K. pneumoniae,improved the outcome of infection; also recorded: Significantly less CFU
same,"P. aeruginosa CFU recovered / outcome, NAM- vs PBS-treated blood",P. aeruginosa,improved the outcome of infection; also recorded: enhances clearance
same,bacterial CFU recovered from spleens and kidneys vs PBS,S. aureus [4]; C/EBPε−/− mice,no impact
same,lower S. aureus CFU in spleens and kidneys vs PBS,S. aureus [4]; WT mice,approximately 2 logic
same,direct anti-staphylococcal activity (CFU vs control),"S. aureus [5]; 1 mM and 10 mM NAM in THB or PBS, 1 h, 3 h, no phagocytic cells",no direct anti-staphylococcal activity; also recorded: No differences
same,direct anti-staphylococcal activity (CFU vs control),"S. aureus [5]; 50 mM NAM in THB, 12 h, 24 h",No difference in CFU
